Key:
[1] = 101 kPa, Liquid
[2] = refractive index (Na D-line) (dimensionless); conditions: 293.15 K; 101.33 kPa; Liquid; Standard Abbe refractometry
[3] = xn = mol fraction of the nth substance listed; conditions: 101 kPa, Liquid

BrC(Br)C(Br)Br [1,1,2,2-tetrabromoethane]
[1]
Conditions	mass density [kg/m3]	viscosity [mPa·s]
293.15 K	2963.2	10.94
303.15 K	2939.86	8.413

Conditions	refractive index
[2]	1.63535

BrC(Br)C(Br)Br [1,1,2,2-tetrabromoethane] + CCCCCCCCCCO
[3]
Conditions	mass density, 293.15 K [kg/m3]	mass density, 303.15 K [kg/m3]	viscosity, 293.15 K [mPa·s]	viscosity, 303.15 K [mPa·s]
x1 = 0.1023	968.19	960.09	14.09	9.449
x1 = 0.202	1114.37	1104.97	13.66	9.246
x1 = 0.3012	1272.36	1261.57	13.24	9.048
x1 = 0.4012	1446.62	1434.34	12.82	8.863
x1 = 0.5007	1636.66	1622.78	12.43	8.701
x1 = 0.6006	1847.04	1831.45	12.06	8.57
x1 = 0.7011	2081.74	2064.32	11.74	8.482
x1 = 0.8006	2340.68	2321.36	11.45	8.437
x1 = 0.9006	2632.79	2611.47	11.19	8.422
x1 = 1	2963.2	2939.86	10.94	8.413

BrC(Br)C(Br)Br [1,1,2,2-tetrabromoethane] + CCCCCCCCO
[3]
Conditions	mass density, 293.15 K [kg/m3]	mass density, 303.15 K [kg/m3]	viscosity, 293.15 K [mPa·s]	viscosity, 303.15 K [mPa·s]
x1 = 0.099	–	980.93	–	6.446
x1 = 0.101	989.26	–	9.28	–
x1 = 0.1999	–	1151.32	–	6.535
x1 = 0.2013	1161.15	–	9.347	–
x1 = 0.2997	1338.99	–	9.426	–
x1 = 0.3001	–	1327.63	–	6.646
x1 = 0.3994	1529.17	–	9.527	–
x1 = 0.3995	–	1516.19	–	6.774
x1 = 0.5002	1732.98	–	9.661	–
x1 = 0.5006	–	1718.29	–	6.947
x1 = 0.5987	–	1931.52	–	7.155
x1 = 0.6003	1947.95	–	9.831	–
x1 = 0.6993	–	2157.22	–	7.398
x1 = 0.6998	2175.4	–	10.04	–
x1 = 0.799	–	2399.36	–	7.708
x1 = 0.7998	2419.28	–	10.32	–
x1 = 0.8992	–	2662.77	–	8.065
x1 = 0.9011	2684.42	–	10.63	–
x1 = 1	2963.2	2939.86	10.94	8.413

BrC(Br)C(Br)Br [1,1,2,2-tetrabromoethane] + CCCCCCCO
[3]
Conditions	mass density, 293.15 K [kg/m3]	mass density, 303.15 K [kg/m3]	viscosity, 293.15 K [mPa·s]	viscosity, 303.15 K [mPa·s]
x1 = 0.099	1001.11	992.57	7.314	5.033
x1 = 0.1999	1189.38	1179.18	7.577	5.262
x1 = 0.3001	1383.2	1371.29	7.86	5.513
x1 = 0.3995	1582.25	1568.62	8.171	5.801
x1 = 0.5006	1792.24	1776.88	8.531	6.128
x1 = 0.5987	2003.6	1986.59	8.915	6.484
x1 = 0.6993	2229.07	2210.42	9.351	6.886
x1 = 0.799	2461.79	2441.56	9.836	7.336
x1 = 0.8992	2706	2684.21	10.38	7.862
x1 = 1	2963.2	2939.86	10.94	8.413

BrC(Br)C(Br)Br [1,1,2,2-tetrabromoethane] + CCCCCCO
[3]
Conditions	mass density, 293.15 K [kg/m3]	mass density, 303.15 K [kg/m3]	viscosity, 293.15 K [mPa·s]	viscosity, 303.15 K [mPa·s]
x1 = 0.1001	1021.6	1012.63	5.764	4.031
x1 = 0.2007	1227.75	1216.94	6.116	4.348
x1 = 0.3004	1434.26	1421.62	6.633	4.709
x1 = 0.4004	1643.89	1629.48	7.123	5.112
x1 = 0.5005	1856.54	1840.42	7.644	5.542
x1 = 0.6008	2072.22	2054.51	8.195	6.009
x1 = 0.6999	2288.24	2269.06	8.786	6.508
x1 = 0.8012	2512.37	2491.76	9.433	7.068
x1 = 0.9001	2734.51	2712.53	10.14	7.699
x1 = 1	2963.2	2939.86	10.94	8.413

BrC(Br)C(Br)Br [1,1,2,2-tetrabromoethane] + CCCCCO
[3]
Conditions	mass density, 293.15 K [kg/m3]	mass density, 303.15 K [kg/m3]	viscosity, 293.15 K [mPa·s]	viscosity, 303.15 K [mPa·s]
x1 = 0.1009	1048.36	1038.85	4.543	3.24
x1 = 0.2014	1276.63	1265.1	5.078	3.639
x1 = 0.3004	1497.47	1484.08	5.653	4.078
x1 = 0.4003	1716.5	1701.36	6.278	4.563
x1 = 0.5014	1934.64	1917.88	6.942	5.089
x1 = 0.6001	2144.16	2125.93	7.621	5.631
x1 = 0.7001	2353.22	2333.58	8.346	6.217
x1 = 0.7998	2558.61	2537.64	9.119	6.846
x1 = 0.8997	2761.73	2739.49	9.968	7.555
x1 = 1	2963.2	2939.86	10.94	8.413

CCCCCCCCCCO [decan-1-ol]
[1]
Conditions	mass density [kg/m3]	viscosity [mPa·s]
293.15 K	829.7	14.54
303.15 K	822.85	9.676

Conditions	refractive index
[2]	1.43706

CCCCCCCCCCO [decan-1-ol] + BrC(Br)C(Br)Br
[3], x2 = 0
Conditions	mass density [kg/m3]	viscosity [mPa·s]
293.15 K	829.7	14.54
303.15 K	822.85	9.676

CCCCCCCO [heptan-1-ol]
[1]
Conditions	mass density [kg/m3]	viscosity [mPa·s]
293.15 K	822.39	7.058
303.15 K	815.41	4.821

Conditions	refractive index
[2]	1.42397

CCCCCCCO [heptan-1-ol] + BrC(Br)C(Br)Br
[3], x2 = 0
Conditions	mass density [kg/m3]	viscosity [mPa·s]
293.15 K	822.39	7.058
303.15 K	815.41	4.821

CCCCCCO [hexan-1-ol]
[1]
Conditions	mass density [kg/m3]	viscosity [mPa·s]
293.15 K	818.92	5.37
303.15 K	811.73	3.744

Conditions	refractive index
[2]	1.41826

CCCCCCO [hexan-1-ol] + BrC(Br)C(Br)Br
[3], x2 = 0
Conditions	mass density [kg/m3]	viscosity [mPa·s]
293.15 K	818.92	5.37
303.15 K	811.73	3.744

CCCCCCCCO [octan-1-ol]
[1]
Conditions	mass density [kg/m3]	viscosity [mPa·s]
293.15 K	824.99	9.219
303.15 K	818.09	6.358

Conditions	refractive index
[2]	1.42958

CCCCCCCCO [octan-1-ol] + BrC(Br)C(Br)Br
[3], x2 = 0
Conditions	mass density [kg/m3]	viscosity [mPa·s]
293.15 K	824.99	9.219
303.15 K	818.09	6.358

CCCCCO [pentan-1-ol]
[1]
Conditions	mass density [kg/m3]	viscosity [mPa·s]
293.15 K	815.03	4.052
303.15 K	807.6	2.926

Conditions	refractive index
[2]	1.40995

CCCCCO [pentan-1-ol] + BrC(Br)C(Br)Br
[3], x2 = 0
Conditions	mass density [kg/m3]	viscosity [mPa·s]
293.15 K	815.03	4.052
303.15 K	807.6	2.926
